Source: ChEMBL document CHEMBL1126836, “Antiviral activity of C-alkylated purine nucleosides obtained by cross-coupling with tetraalkyltin reagents” (1993)
Converted amounts (≈) assume the structure as drawn.

Experiments:
Format in all cases: functional
Details in all cases: Homo sapiens
HeLa [1] = assay: Tested for minimum cytotoxic concentration on RSV (respiratory syncytial virus)-induced cytopathicity in HeLa cells
E6SM [2] = assay: Tested for minimum cytotoxic concentration on virus-induced cytopathicity in E6SM cells
E6SM [3] = assay: Tested for minimum inhibitory concentration against Vaccinia virus in E6SM cells
HeLa [4] = assay: Tested for minimum inhibitory concentration against RSV in HeLa cells
E6SM [5] = assay: Tested for minimum inhibitory concentration against vesicular stomatitis virus (VSV) in E6SM cells
E6SM [6] = assay: Tested for minimum inhibitory concentration against HSV-1 (KOS strain) in E6SM cells
E6SM [7] = assay: Tested for minimum inhibitor concentration against vesicular stomatitis virus (VSV) in E6SM cells
HeLa [8] = assay: Tested for minimum inhibitor concentration against RSV in HeLa cells
E6SM [9] = assay: Tested for minimum inhibitory concentration against vesicular stomatitis virus (VSV) in E6SM cells.
HeLa [10] = assay: Tested for minimum inhibitory concentration against RSV (respiratory syncytial virus) in HeLa cells
E6SM [11] = assay: Tested for minimum inhibitory concentration against HSV-2 ([…] strain) in E6SM cells
E6SM [12] = assay: Tested for minimum inhibitor concentration against vesicular stomatitis virus (VSV) in E6SM cells.

SMILES | MCC (HeLa [1]) [µg/mL] | MCC (E6SM [2]) [µg/mL] | MIC (E6SM [3]) [µg/mL] | MIC (HeLa [4]) [µg/mL] | MIC (E6SM [5]) [µg/mL] | MIC (E6SM [6]) [µg/mL] | MIC (E6SM [7]) [µg/mL] | MIC (HeLa [8]) [µg/mL] | MIC (E6SM [9]) [µg/mL] | MIC (HeLa [10]) [µg/mL] | MIC (E6SM [11]) [µg/mL] | MIC (E6SM [12]) [µg/mL]
Cc1nc2c(N)ncnc2n1C1O[C@H](CO)[C@@H](O)[C@H]1O (some centres not stated) | 20 | > 200 | 0.2 (≈ 0.711 µM) | 4 (≈ 14.2 µM) | > 200 | > 100 |  |  |  |  |  | 
CCc1nc(N)c2ncn(C3O[C@H](CO)[C@@H](O)[C@H]3O)c2n1 (some centres not stated) | 4 | > 10 | 7 (≈ 23.7 µM) |  |  | > 10 | > 10 | 0.8 (≈ 2.71 µM) |  |  |  | 
CCc1nc2c(N)ncnc2n1C1O[C@H](CO)[C@@H](O)[C@H]1O (some centres not stated) | 100 | > 100 | 0.2 (≈ 0.677 µM) | 10 (≈ 33.9 µM) | > 200 | > 100 |  |  |  |  |  | 
Cc1ncnc2c1ncn2[C@@H]1O[C@H](CO)[C@@H](O)[C@H]1O | 0.8 | 1 | 0.04 (≈ 0.15 µM) |  |  | 0.4 (≈ 1.5 µM) |  |  | 0.4 (≈ 1.5 µM) | 0.4 (≈ 1.5 µM) |  | 
C=Cc1nc2c(N)ncnc2n1C1CCC(CO)O1 (configuration not stated) |  |  |  |  |  | > 100 |  |  |  |  | > 20 | 
O=c1[nH]c(=O)n([C@H]2C[C@H](O)[C@@H](CO)O2)cc1/C=C/Br [BRIVUDINE] |  | > 400 | 0.4 (≈ 1.2 µM) |  |  | 0.02 (≈ 0.06 µM) |  |  |  |  |  | > 400
C=Cc1nc2c(N)ncnc2n1[C@@H]1O[C@H](CO)[C@@H](O)[C@H]1O | 70 | > 400 | 7 (≈ 23.9 µM) | 4 (≈ 13.6 µM) |  | 2 (≈ 6.82 µM) |  |  |  |  | 40 (≈ 136 µM) | 
Cc1nc2c(N)ncnc2n1C1CCC(CO)O1 (configuration not stated) |  |  |  |  |  | > 100 |  |  |  |  | > 20 | 
NC(=O)c1ncn([C@@H]2O[C@H](CO)[C@@H](O)[C@H]2O)n1 [RIBAVIRIN] |  | > 400 | 70 (≈ 287 µM) |  |  | > 300 | 20 (≈ 81.9 µM) |  |  |  |  | 
Nc1nccc2c1ncn2[C@@H]1O[C@H](CO)[C@@H](O)[C@H]1O |  | > 400 | 2 (≈ 7.51 µM) |  | 0.7 (≈ 2.63 µM) | > 400 |  |  |  |  |  | 
C=Cc1ncnc2c1ncn2C1O[C@H](CO)[C@@H](O)[C@H]1O (some centres not stated) | 4 | 10 | > 4 | > 4 |  | 2 (≈ 7.19 µM) |  |  | > 4 |  |  | 
